Experimental data: patent publication US6274715A, “Tricyclic erythromycin derivatives” (priority 1997, dated 2001)
≈ marks a conversion by molar mass, not a printed value.

Columns and labels:
Format in all cases: cell-based
[1] = system: STAPHYLOCOCCUS AUREUS ATCC 6538P; assay: In vitro antibacterial activity, MIC, BHI agar dilution; details: S. aureus ATCC 6538P, 35-37° C., 20 to 24 hours, unit assumed
[2] = system: STAPHYLOCOCCUS AUREUS A5177; assay: as above; details: S. aureus A5177, unit assumed
[3] = system: STAPHYLOCOCCUS AUREUS A-5278; assay: as above; details: S. aureus A-5278, unit assumed
[4] = system: STAPHYLOCOCCUS AUREUS CMX 642A; assay: as above; details: S. aureus CMX 642A, unit assumed
[5] = system: STAPHYLOCOCCUS AUREUS NCTC10649M; assay: as above; details: S. aureus NCTC10649M, unit assumed
[6] = system: STAPHYLOCOCCUS AUREUS CMX 553; assay: as above; details: S. aureus CMX 553, unit assumed
[7] = system: STAPHYLOCOCCUS AUREUS 1775; assay: as above; details: S. aureus 1775, unit assumed
[8] = system: STAPHYLOCOCCUS EPIDERMIDIS 3519; details: S. epidermidis 3519; BHI agar; unit assumed
EN[…] ATCC 8043 = assay: In vitro antibacterial activity, MIC, BHI agar dilution; details: E. faecium ATCC 8043, unit assumed
How it was run: (§1)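 BHI agar dilution: twelve plates with successive compound dilutions, inoculated by replicator with 1:100 culture dilutions (1:10 for slow growers such as Micrococcus and Streptococcus), 20 to 24 hours at 35-37° C. MIC was the lowest concentration giving no growth, slight haze or sparse isolated colonies versus drug-free control; erythromycin A as class reference.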

M[…] ATCC 4698 = assay: as above; details: M. luteus ATCC 4698, unit assumed
How it was run: as §1

M[…] ATCC 9341 = assay: as above; details: M. luteus ATCC 9341, unit assumed
How it was run: as §1

STR[…] 508 = assay: as above; details: S. agalactiae CMX 508, unit assumed
How it was run: as §1

[9] = system: STREPTOCOCCUS BOVIS A-5169; assay: as above; details: S. bovis A-5169, unit assumed
[10] = system: STREPTOCOCCUS PYOGENES EES61; assay: as above; details: S. pyogenes EES61, unit assumed
[11] = system: STREPTOCOCCUS PYOGENES 930; assay: as above; details: S. pyogenes 930, unit assumed
[12] = system: STREPTOCOCCUS PYOGENES PIU 2548; assay: as above; details: S. pyogenes PIU 2548, unit assumed
ESCHERICHIA COLI JUHL = details: E. coli JUHL; BHI agar; unit assumed
ESCHERICHIA COLI SS = assay: In vitro antibacterial activity, MIC, BHI agar dilution; details: E. coli SS, unit assumed
ESCHERICHIA COLI DC-2 = assay: as above; details: E. coli DC-2, unit assumed
ESCHERICHIA COLI H560 = assay: as above; details: E. coli H560, unit assumed
ESCHERICHIA COLI KNK 437 = details: E. coli KNK 437; BHI agar; unit assumed
[13] = system: ENTEROBACTER AEROGENES ATCC 13048; assay: In vitro antibacterial activity, MIC, BHI agar dilution; details: E. aerogenes ATCC 13048, unit assumed
[14] = system: KLEBSIELLA PNEUMONIAE ATCC 8045; assay: as above; details: K. pneumoniae ATCC 8045, unit assumed
[15] = system: PROVIDENCIA STUARTII CMX 640; details: P. stuartii CMX 640; BHI agar; unit assumed
[16] = system: PSEUDOMONAS AERUGINOSA BMH10; assay: In vitro antibacterial activity, MIC, BHI agar dilution; details: P. aeruginosa BMH10, unit assumed
[17] = system: PSEUDOMONAS AERUGINOSA 5007; assay: as above; details: P. aeruginosa 5007, unit assumed
[18] = system: PSEUDOMONAS AERUGINOSA K799/WT; assay: as above; details: P. aeruginosa K799/WT, unit assumed
[19] = system: PSEUDOMONAS AERUGINOSA K799/61; assay: as above; details: P. aeruginosa K799/61, unit assumed
PSEUDOMONAS CEPACIA 296I = assay: as above; details: P. cepacia 296I, unit assumed
[20] = system: PSEUDOMONAS AERUGINOSA DPHD-5263; assay: as above; details: P. aeruginosa DPHD-5263, unit assumed
[21] = system: PSEUDOMONAS AERUGINOSA DPHD-2862; assay: as above; details: P. aeruginosa DPHD-2862, unit assumed
CANDIDA ALBICANS CCH 442 = assay: as above; details: C. albicans CCH 442, unit assumed
[22] = system: MYCOBACTERIUM SMEGMATIS ATCC 114; assay: as above; details: M. smegmatis ATCC 114, unit assumed

SMILES | MIC [1] [µg/mL] | MIC [2] [µg/mL] | MIC [3] [µg/mL] | MIC [4] [µg/mL] | MIC [5] [µg/mL] | MIC [6] [µg/mL] | MIC [7] [µg/mL] | MIC [8] [µg/mL] | MIC (EN[…] ATCC 8043) [µg/mL] | MIC (M[…] ATCC 4698) [µg/mL] | MIC (M[…] ATCC 9341) [µg/mL] | MIC (STR[…] 508) [µg/mL] | MIC [9] [µg/mL] | MIC [10] [µg/mL] | MIC [11] [µg/mL] | MIC [12] [µg/mL] | MIC (ESCHERICHIA COLI JUHL) [µg/mL] | MIC (ESCHERICHIA COLI SS) [µg/mL] | MIC (ESCHERICHIA COLI DC-2) [µg/mL] | MIC (ESCHERICHIA COLI H560) [µg/mL] | also measured
CC[C@H]1OC(=O)[C@H](C)C(=O)[C@H](C)[C@@H](O[C@@H]2O[C@H](C)C[C@H](N(C)C)[C@H]2O)[C@](C)(OC)C[C@@H](C)C2=NC[C@H](Cc3ccc(I)cc3)N3C(=O)O[C@@]1(C)[C@H]3[C@H]2C [Example 70] | 0.1 (≈ 0.117 µM) | 0.1 (≈ 0.117 µM) | 100 (≈ 117 µM) | 0.2 (≈ 0.234 µM) | 0.2 (≈ 0.234 µM) | 0.2 (≈ 0.234 µM) | 100 (≈ 117 µM) | 0.2 (≈ 0.234 µM) | 0.1 (≈ 0.117 µM) | 0.2 (≈ 0.234 µM) | 0.1 (≈ 0.117 µM) | 0.05 (≈ 0.0586 µM) | 0.01 (≈ 0.0117 µM) | 0.02 (≈ 0.0234 µM) | 50 (≈ 58.6 µM) | 0.39 (≈ 0.457 µM) | 100 (≈ 117 µM) | 1.56 (≈ 1.83 µM) | 50 (≈ 58.6 µM) | 50 (≈ 58.6 µM) | MIC (ESCHERICHIA COLI KNK 437): > 100 µg/mL; MIC [13]: 100 µg/mL (≈ 117 µM); MIC [14]: 100 µg/mL (≈ 117 µM); MIC [15]: > 100 µg/mL; MIC [16]: 100 µg/mL (≈ 117 µM); MIC [17]: 100 µg/mL (≈ 117 µM); MIC [18]: > 100 µg/mL; MIC [19]: 0.78 µg/mL (≈ 0.914 µM); MIC (PSEUDOMONAS CEPACIA 296I): 50 µg/mL (≈ 58.6 µM); MIC [20]: 100 µg/mL (≈ 117 µM); MIC [21]: 100 µg/mL (≈ 117 µM); MIC (CANDIDA ALBICANS CCH 442): 100 µg/mL (≈ 117 µM); MIC [22]: 0.2 µg/mL (≈ 0.234 µM)
CCC1OC(=O)C(C)C(=O)C(C)C(OC2OC(C)CC(N(C)C)C2O)C(C)(OC)CC(C)C2=NCC(COCc3ccccc3F)N3C(=O)OC1(C)C3C2C (stereo not drawn) [Example 73] | 0.1 (≈ 0.129 µM) | 0.1 (≈ 0.129 µM) | > 100 | 0.1 (≈ 0.129 µM) | 0.1 (≈ 0.129 µM) | 0.1 (≈ 0.129 µM) | > 100 | 0.1 (≈ 0.129 µM) | 0.05 (≈ 0.0644 µM) | 0.1 (≈ 0.129 µM) | 0.01 (≈ 0.0129 µM) | ≤ 0.005 | 0.01 (≈ 0.0129 µM) | ≤ 0.005 | 100 (≈ 129 µM) | 0.39 (≈ 0.503 µM) | 50 (≈ 64.4 µM) | 0.2 (≈ 0.258 µM) | 25 (≈ 32.2 µM) | 12.5 (≈ 16.1 µM) | MIC (ESCHERICHIA COLI KNK 437): 50 µg/mL (≈ 64.4 µM); MIC [13]: 100 µg/mL (≈ 129 µM); MIC [14]: 100 µg/mL (≈ 129 µM); MIC [15]: > 100 µg/mL; MIC [16]: 100 µg/mL (≈ 129 µM); MIC [17]: > 100 µg/mL; MIC [18]: > 100 µg/mL; MIC [19]: 0.39 µg/mL (≈ 0.503 µM); MIC (PSEUDOMONAS CEPACIA 296I): 25 µg/mL (≈ 32.2 µM); MIC [20]: 100 µg/mL (≈ 129 µM); MIC [21]: 100 µg/mL (≈ 129 µM); MIC (CANDIDA ALBICANS CCH 442): > 100 µg/mL; MIC [22]: 0.39 µg/mL (≈ 0.503 µM)
CCC1OC(=O)C(C)C(=O)C(C)C(OC2OC(C)CC(N(C)C)C2O)C(C)(OC)CC(C)C2=NC(COCc3ccc(N(C)C)cc3)CN3C(=O)OC1(C)C3C2C (stereo not drawn) [Example 76] | 0.39 (≈ 0.487 µM) | 0.39 (≈ 0.487 µM) | > 100 | 0.39 (≈ 0.487 µM) | 0.2 (≈ 0.25 µM) | 0.39 (≈ 0.487 µM) | > 100 | 0.39 (≈ 0.487 µM) | 0.1 (≈ 0.125 µM) | 0.39 (≈ 0.487 µM) | 0.2 (≈ 0.25 µM) | 0.1 (≈ 0.125 µM) | 0.01 (≈ 0.0125 µM) | 0.1 (≈ 0.125 µM) | > 100 | 0.39 (≈ 0.487 µM) | > 100 | 0.39 (≈ 0.487 µM) | > 100 | 50 (≈ 62.4 µM) | MIC (ESCHERICHIA COLI KNK 437): > 100 µg/mL; MIC [13]: > 100 µg/mL; MIC [14]: > 100 µg/mL; MIC [15]: > 100 µg/mL; MIC [16]: > 100 µg/mL; MIC [17]: > 100 µg/mL; MIC [18]: > 100 µg/mL; MIC [19]: 1.56 µg/mL (≈ 1.95 µM); MIC (PSEUDOMONAS CEPACIA 296I): > 100 µg/mL; MIC [20]: > 100 µg/mL; MIC [21]: > 100 µg/mL; MIC (CANDIDA ALBICANS CCH 442): > 100 µg/mL; MIC [22]: 6.2 µg/mL (≈ 7.74 µM)
CC[C@H]1OC(=O)[C@H](C)C(=O)[C@H](C)[C@@H](O[C@@H]2O[C@H](C)C[C@H](N(C)C)[C@H]2O)[C@](C)(OC)C[C@@H](C)C2=N[C@@H](COCc3ccccc3)CN3C(=O)O[C@@]1(C)[C@H]3[C@H]2C [Example 89] | 0.39 (≈ 0.515 µM) | 0.39 (≈ 0.515 µM) | > 100 | 0.39 (≈ 0.515 µM) | 0.39 (≈ 0.515 µM) | 0.39 (≈ 0.515 µM) | > 100 | 0.39 (≈ 0.515 µM) | 0.1 (≈ 0.132 µM) | 0.39 (≈ 0.515 µM) | 0.05 (≈ 0.066 µM) | 0.01 (≈ 0.0132 µM) | 0.01 (≈ 0.0132 µM) | 0.02 (≈ 0.0264 µM) | 100 (≈ 132 µM) | 0.2 (≈ 0.264 µM) | 100 (≈ 132 µM) | 0.39 (≈ 0.515 µM) | 100 (≈ 132 µM) | 25 (≈ 33 µM) | MIC (ESCHERICHIA COLI KNK 437): 100 µg/mL (≈ 132 µM); MIC [13]: > 100 µg/mL; MIC [14]: > 100 µg/mL; MIC [15]: > 100 µg/mL; MIC [16]: > 100 µg/mL; MIC [17]: > 100 µg/mL; MIC [18]: > 100 µg/mL; MIC [19]: 1.56 µg/mL (≈ 2.06 µM); MIC (PSEUDOMONAS CEPACIA 296I): 25 µg/mL (≈ 33 µM); MIC [20]: 100 µg/mL (≈ 132 µM); MIC [21]: > 100 µg/mL; MIC (CANDIDA ALBICANS CCH 442): > 100 µg/mL; MIC [22]: 0.78 µg/mL (≈ 1.03 µM)
